Experimental findings from patent US7842695B2, “Substituted pyrazole compounds” (Merck Patent GmbH, priority 2003, dated 2010) are described below.

SMILES strings stand for the structures.

The assay has as its target 5-HT2A receptors (UniProt P14842). As to the kind of experiment: in-vitro affinity to 5-HT2A receptors, [3H]ketanserine displacement (Example A1). The assay is classed as binding. The source says: The 5-HT2A receptors are exposed both to [^3H]ketanserine (a substance known for its affinity to the receptor) and also to the test compound. The decrease in the affinity of [^3H]ketanserine to the receptor is an indication of the affinity of the test substance to the 5-HT2A receptor.
With `CN1CCN(Cc2cnn(-c3ccc(-c4ccc(F)cc4)cc3)c2-n2cccc2)CC1` [Example 658, 1-[1-(4′-Fluorobiphenyl-4-yl)-5-pyrrol-1-yl-1H-pyrazol-4-ylmethyl]-4-methylpiperazine], the IC50 (in general, the concentration needed to halve the response being measured) was 74 nM.
In turn, `Fc1ccc(-c2ccc(-n3ncc(CN4CCN(CCN5CCCCC5)CC4)c3-c3cccc(Cl)c3)cc2)cc1` [Example 702, 1-[5-(3-Chlorophenyl)-1-(4′-fluorobiphenyl-4-yl)-1H-pyrazol-4-ylmethyl]-4-(2-piperidin-1-ylethyl)piperazine] registered a half-maximal inhibitory concentration (IC50) of 470 nM.
`COCCNCc1cnn(-c2ccc(-c3ccc(F)cc3)cc2)c1-c1ccco1` [Example 603, [1-(4′-Fluorobiphenyl-4-yl)-5-furan-2-yl-1H-pyrazol-4-ylmethyl]-(2-methoxyethyl)amine] showed an IC50 of 26 nM. This IC50 is about 18-fold lower than that of the compound before.
For `Fc1ccccc1-c1c(CN2CCN(Cc3ccccc3)CC2)cnn1-c1ccc(-c2ccccc2)cc1` [Example 679, 1-Benzyl-4-[1-biphenyl-4-yl-5-(2-fluorophenyl)-1H-pyrazol-4-ylmethyl]piperazine], the IC50 came to 170 nM.
Take `CC(C)(C)OC(=O)NC1CCN(Cc2cnn(-c3ccc(-c4cccc(F)c4)cc3)c2-c2ccco2)CC1` [Example 608, tert-Butyl {1-[1-(3′-fluorobiphenyl-4-yl)-5-furan-2-yl-1H-pyrazol-4-ylmethyl]piperidin-4-yl}carbamate]: the concentration for half-maximal inhibition (IC50) stood at 29 nM.
For `CC1CCCN1Cc1cnn(-c2ccc(-c3ccc4c(c3)OCO4)cc2)c1-c1ccco1` (centres unmarked) [Example 616, 1-(4-Benzo-1,3-dioxol-5-ylphenyl)-5-furan-2-yl-4-(2-methylpyrrolidin-1-ylmethyl)-1H-pyrazole], the IC50 is 32 nM.
In turn, `CN1CCN(c2cnn(-c3ccc(-c4cccc(F)c4)cc3)c2-c2ccccc2)CC1` [Example 578, 1-[1-(3′-Fluorobiphenyl-4-yl)-5-phenyl-1H-pyrazol-4-yl]-4-methylpiperazine] came in with an IC50 of 16 nM.
On to `CN(C)CCN1CCN(Cc2cnn(-c3ccc(-c4ccc(F)cc4)cc3)c2-c2cccc(Cl)c2)CC1` [Example 701, (2-{4-[5-(3-Chlorophenyl)-1-(4′-fluorobiphenyl-4-yl)-1H-pyrazol-4-ylmethyl]piperazin-1-yl}ethyl)dimethylamine], for which the IC50 turned out to be 470 nM.
`NC1CCN(Cc2cnn(-c3ccc(-c4ccc5c(c4)OCO5)cc3)c2-c2ccco2)CC1` [Example 631, 1-[1-(4-Benzo-1,3-dioxol-5-ylphenyl)-5-furan-2-yl-1H-pyrazol-4-ylmethyl]piperidin-4-ylamine] yielded a 50% inhibitory concentration (IC50) of 39 nM.
The compound `CC1CCCN1Cc1cnn(-c2ccc(-c3ccc4c(c3)OCCO4)cc2)c1-c1ccco1` (centres unmarked) [Example 594, 1-[4-(2,3-Dihydrobenzo-1,4-dioxin-6-yl)phenyl]-5-furan-2-yl-4-(2-methylpyrrolidin-1-ylmethyl)-1H-pyrazole] had an IC50 of 21 nM.
Compound `CCCN1CCN(Cc2cnn(-c3ccc(-c4ccc(F)cc4)cc3)c2-c2ccoc2)CC1` [Example 657, 1-[1-(4′-Fluorobiphenyl-4-yl)-5-furan-3-yl-1H-pyrazol-4-ylmethyl]-4-propylpiperazine] registered a 50% inhibitory concentration (IC50) of 73 nM.
Under `COc1cccc(-c2c(CN3CCC(O)C3)cnn2-c2ccc(-c3ccc(F)cc3)cc2)c1` (centres unmarked) [Example 665, 1-[1-(4′-Fluorobiphenyl-4-yl)-5-(3-methoxyphenyl)-1H-pyrazol-4-ylmethyl]pyrrolidin-3-ol] stands 91 nM; under `CN1CCN(Cc2cnn(-c3ccc(-c4ccc(C#N)s4)cc3)c2-c2ccccc2F)CC1` [Example 649, 5-{4-[5-(2-Fluorophenyl)-4-(4-methylpiperazin-1-ylmethyl)pyrazol-1-yl]phenyl}thiophene-2-carbonitrile], 54 nM; under `NC1CCN(Cc2cnn(-c3ccc(-c4ccc5c(c4)OCCO5)cc3)c2-c2ccco2)CC1` [Example 652, 1-{1-[4-(2,3-Dihydrobenzo-1,4-dioxin-6-yl)phenyl]-5-furan-2-yl-1H-pyrazol-4-ylmethyl}piperidin-4-ylamine], 55 nM.
`CC(C)CCNCc1cnn(-c2ccc(-c3ccc(F)cc3)cc2)c1-c1ccco1` [Example 628, [1-(4′-Fluorobiphenyl-4-yl)-5-furan-2-yl-1H-pyrazol-4-ylmethyl]-(3-methylbutyl)amine] showed an IC50 of 36 nM.
Under `CCN(CC)Cc1cnn(-c2ccc(-c3ccc(F)cc3)cn2)c1-c1ccco1` [Example 675, Diethyl-{1-[5-(4-fluorophenyl)pyridin-2-yl]-5-furan-2-yl-1H-pyrazol-4-ylmethyl}amine] stands 130 nM; under `COc1cccc(-c2c(CN3CCC(O)C3)cnn2-c2ccc(-c3ccc(F)cc3)cc2)c1` (centres unmarked) [Example 598, 1-[1-(4′-Fluorobiphenyl-4-yl)-5-(3-methoxyphenyl)-1H-pyrazol-4-ylmethyl]pyrrolidin-3-ol], 24 nM.
`COc1ccc(-c2ccc(-n3ncc(CN(Cc4nccn4C)Cc4nccn4C)c3-c3ccco3)cc2)cc1` [Example 700, [5-Furan-2-yl-1-(4′-methoxybiphenyl-4-yl)-1H-pyrazol-4-ylmethyl]bis-(1-methyl-1H-imidazol-2-ylmethyl)amine]: the concentration for half-maximal inhibition (IC50) was found to be 450 nM.
`CC(C)CNCc1cnn(-c2ccc(-c3ccc(F)cc3)cc2)c1-c1ccco1` [Example 654, [1-(4′-Fluorobiphenyl-4-yl)-5-furan-2-yl-1H-pyrazol-4-ylmethyl]isobutylamine] registered a concentration for half-maximal inhibition (IC50) of 61 nM.
`CN1CCN(c2cnn(-c3ccc(-c4ccc5c(c4)OCO5)cc3)c2-c2ccccc2)CC1` [Example 565, 1-[1-(4-Benzo-1,3-dioxol-5-ylphenyl)-5-phenyl-1H-pyrazol-4-yl]-4-methylpiperazine]: the half-inhibitory concentration (IC50) is 10 nM.
With `Fc1ccc(-c2ccc(-n3ncc(CN4CCN(C5CCCC5)CC4)c3-c3cccc(Cl)c3)cc2)cc1` [Example 686, 1-[5-(3-Chlorophenyl)-1-(4′-fluorobiphenyl-4-yl)-1H-pyrazol-4-ylmethyl]-4-cyclopentylpiperazine], the concentration for half-maximal inhibition (IC50) was determined as 200 nM. Against the preceding compound, the IC50 is about 20-fold higher.
In the case of `COc1ccc(-c2ccc(-n3ncc(CNCc4ccncc4)c3-c3ccco3)cc2)cc1` [Example 615, [5-Furan-2-yl-1-(4′-methoxybiphenyl-4-yl)-1H-pyrazol-4-ylmethyl]pyridin-4-ylmethylamine], the IC50 turned out to be 32 nM.
`Fc1ccc(-c2ccc(-n3ncc(CN4CCN(CCc5ccc(F)cc5F)CC4)c3-c3cccc(Cl)c3)cc2)cc1` [Example 683, 1-[5-(3-Chlorophenyl)-1-(4′-fluorobiphenyl-4-yl)-1H-pyrazol-4-ylmethyl]-4-[2-(2,4-difluorophenyl)ethyl]piperazine]: the concentration for half-maximal inhibition (IC50) turned out to be 190 nM. This IC50 is about 5.9-fold higher than that of the compound before.
`COc1ccc(-c2c(CN3CCN(C)CC3)cnn2-c2ccc(-c3ccc(F)cc3)cc2)cc1` [Example 671, 1-[1-(4′-Fluorobiphenyl-4-yl)-5-(4-methoxyphenyl)-1H-pyrazol-4-ylmethyl]-4-methylpiperazine] gave a half-maximal inhibitory concentration (IC50) of 100 nM.
`CCCN1CCN(Cc2cnn(-c3ccc(-c4ccc(F)cc4)cc3)c2-c2cccc(OC)c2)CC1` [Example 684, 1-[1-(4′-Fluorobiphenyl-4-yl)-5-(3-methoxyphenyl)-1H-pyrazol-4-ylmethyl]-4-propylpiperazine] yielded a half-maximal inhibitory concentration (IC50) of 190 nM. This IC50 lies about 1.9-fold higher than the previous one.
Compound `Cc1noc(C)c1-c1c(CN2CCNCC2)cnn1-c1ccc(-c2ccc(F)cc2)cc1` [Example 691, 1-[5-(3,5-Dimethylisoxazol-4-yl)-1-(4′-fluorobiphenyl-4-yl)-1H-pyrazol-4-ylmethyl]piperazine] gave a half-maximal inhibitory concentration (IC50) of 250 nM. This IC50 and that of the compound before are within 1.5-fold of each other.
`COCCCNCc1cnn(-c2ccc(-c3ccc(F)cc3)cc2)c1-c1ccco1` [Example 580, [1-(4′-Fluorobiphenyl-4-yl)-5-furan-2-yl-1H-pyrazol-4-ylmethyl]-(3-methoxypropyl)amine] had a concentration for half-maximal inhibition (IC50) of 16 nM.
Take `CCN1CCN(Cc2cnn(-c3ccc(-c4ccc(F)cc4)cc3)c2-c2c(C)noc2C)CC1` [Example 672, 1-[5-(3,5-Dimethylisoxazol-4-yl)-1-(4′-fluorobiphenyl-4-yl)-1H-pyrazol-4-ylmethyl]-4-ethylpiperazine]: the concentration for half-maximal inhibition (IC50) was 100 nM.
The value for `OCC1CCN(Cc2cnn(-c3ccc(-c4ccc(F)cc4)cc3)c2-c2ccco2)C1` (centres unmarked) [Example 567, {1-[1-(4′-Fluorobiphenyl-4-yl)-5-furan-2-yl-1H-pyrazol-4-ylmethyl]pyrrolidin-3-yl}methanol] was 11 nM; that for `O=C1CN(Cc2cnn(-c3ccc(-c4ccc5c(c4)OCO5)cc3)c2-c2ccco2)CCN1` [Example 612, 4-[1-(4-Benzo-1,3-dioxol-5-ylphenyl)-5-furan-2-yl-1H-pyrazol-4-ylmethyl]piperazin-2-one] was 31 nM.
`Cc1noc(C)c1-c1c(CN2CCC(O)C2)cnn1-c1ccc(-c2ccc(F)cc2)cc1` (centres unmarked) [Example 690, 1-[5-(3,5-Dimethylisoxazol-4-yl)-1-(4′-fluorobiphenyl-4-yl)-1H-pyrazol-4-ylmethyl]pyrrolidin-3-ol] gave an IC50 of 240 nM.
On to `O=C(c1ccccc1)C1CCCN(Cc2cnn(-c3ccc(-c4ccc(F)cc4)cc3)c2-c2ccco2)C1` (centres unmarked) [Example 593, 1-{1-[1-(4′-Fluorobiphenyl-4-yl)-5-furan-2-yl-1H-pyrazol-4-ylmethyl]piperidin-3-yl}-1-phenylmethanone], for which the IC50 was 20 nM.
As for `O=C1CN(Cc2cnn(-c3ccc(-c4ccc5c(c4)OCO5)cc3)c2-c2ccco2)CCN1` [Example 693, 4-[1-(4-Benzo-1,3-dioxol-5-ylphenyl)-5-furan-2-yl-1H-pyrazol-4-ylmethyl]piperazin-2-one], the IC50 is 280 nM.
`O=C1CN(Cc2cnn(-c3ccc(-c4cccc(F)c4)cc3)c2-c2ccco2)CCN1` [Example 645, 4-[1-(3′-Fluorobiphenyl-4-yl)-5-furan-2-yl-1H-pyrazol-4-ylmethyl]piperazin-2-one] registered a concentration for half-maximal inhibition (IC50) of 49 nM.
Regarding `COc1cccc(-c2c(CN3CCC(N4CCCC4)CC3)cnn2-c2ccc(-c3ccc(F)cc3)cc2)c1` [Example 698, 1-[1-(4′-Fluorobiphenyl-4-yl)-5-(3-methoxyphenyl)-1H-pyrazol-4-ylmethyl]-4-pyrrolidin-1-ylpiperidine], the IC50 was 420 nM.
